Where two headings read alike, the source gives them in different places.
Assays:
[1] = tested on: HepG2 cells; format: cell-based, human
[2] = tested on: p53RE-bla HCT116 cells; format: cell-based, human
[3] = tested on: hTERT-MSCs and aortic ECs (TeloHAECs) co-culture; format: cell-based, human
[4] = tested on: liver, renal, bladder, and lung cells

SMILES: O=[As]O[As]=O (stereo not drawn) [arsenic oxide]
- ROS induction ([1]; HepG2 cells): not detected

SMILES: O.O.O.O.O=S(=O)([O-])[O-].[Be+2] [beryllium sulfate tetrahydrate]
- ROS induction ([1]; HepG2 cells): not detected
- p53 activation [2]: activated p53

SMILES: CC(=O)[O-].CC(=O)[O-].O.O.[Cd+2] [cadmium acetate dihydrate, Cadmium acetate dihydrate]
- angiogenesis induction [3]: independently induce angiogenesis
- cytotoxicity of single compound [4]: cytotoxic by themselves

SMILES: [Cl][Cd][Cl] [cadmium chloride]
- angiogenesis induction [3]: independently induce angiogenesis
- cytotoxicity of single compound [4]: cytotoxic by themselves

SMILES: O.O.O.O.O=[N+]([O-])[O-].O=[N+]([O-])[O-].[Cd+2] [cadmium nitrate tetrahydrate, Cadmium nitrate tetrahydrate]
- oxidative stress-inducing capability ([1]; among components of Mixture 1, Supporting Table 3): exhibited oxidative stress-inducing capability
- angiogenesis induction [3]: independently induce angiogenesis
- cytotoxicity of single compound [4]: cytotoxic by themselves

SMILES: CC(=O)[O-].CC(=O)[O-].O.O.O.[Pb+2] [lead(II) acetate trihydrate]
- cytotoxicity of single compound [4]: cytotoxic by themselves

SMILES: [Cl][Pb][Cl] [lead(II) chloride, Lead(II) chloride]
- angiogenesis induction [3]: induced angiogenesis
- cytotoxicity of single compound [4]: cytotoxic by themselves

SMILES: O.O.O.O.O.O.O=S(=O)([O-])[O-].[Ni+2] [nickel sulfate, nickel(II) sulfate hexahydrate]
- ROS induction [1]: not detected

SMILES: O=[N+]([O-])c1ccc([As](=O)(O)O)cc1 [nitarsone, Nitarsone]
- angiogenesis induction [3]: induced angiogenesis

Reference: publication PMC13022995 (Environmental science & technology, 2025)
